From the supplement of paper PMC10307832

Legend:
Assay in all cases: relative viability (nuclei count vs DMSO), 5 days (fraction); higher = more cells survive
Veliparib + Luminespib = compound: C[C@]1(c2nc3c(C(N)=O)cccc3[nH]2)CCCN1 [Veliparib] + CCNC(=O)c1noc(-c2cc(C(C)C)c(O)cc2O)c1-c1ccc(CN2CCOCC2)cc1 [Luminespib] (partner 0.01 µM)
Method in brief: (§1)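 Dosing by pin tool came one day after lung cancer cell lines were seeded in 1536-well plates, using either one drug or a fixed anchor-drug dose plus five library-drug doses (not always all listed) in √10 steps. After 5 days, nuclei were counted on 4× images. Relative viability is treated-well nuclei count divided by vehicle-well nuclei count, and values are medians of duplicate plates.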

[1] = compound: COC1=CC=C(C=C1)CN2C=CC3=C2C=C(C=C3)C(=O)NO + CS(=O)(=O)CCNCc1ccc(-c2ccc3ncnc(Nc4ccc(OCc5cccc(F)c5)c(Cl)c4)c3c2)o1 [Lapatinib] (partner 2 µM)
Method in brief: as §1

[2] = compound: COC1=CC=C(C=C1)CN2C=CC3=C2C=C(C=C3)C(=O)NO + CC1(C)CCC(c2ccc(Cl)cc2)=C(CN2CCN(c3ccc(C(=O)NS(=O)(=O)c4ccc(N[C@H](CCN5CCOCC5)CSc5ccccc5)c(S(=O)(=O)C(F)(F)F)c4)cc3)CC2)C1 [Navitoclax] (partner 0.5 µM)
Method in brief: as §1

Veliparib + Dasatinib = compound: C[C@]1(c2nc3c(C(N)=O)cccc3[nH]2)CCCN1 [Veliparib] + Cc1nc(Nc2ncc(C(=O)Nc3c(C)cccc3Cl)s2)cc(N2CCN(CCO)CC2)n1 [Dasatinib] (partner 0.075 µM)
Method in brief: as §1

| Cell Line | relative viability (Veliparib + Luminespib; first compound 0.02 µM) | relative viability (Veliparib + Luminespib; first compound 0.06325 µM) | relative viability (Veliparib + Luminespib; first compound 0.2 µM) | relative viability (Veliparib + Luminespib; first compound 0.6325 µM) | relative viability (Veliparib + Luminespib; first compound 2 µM) | relative viability ([1]; first compound 0.08 µM) | relative viability ([1]; first compound 0.253 µM) | relative viability ([1]; first compound 0.8 µM) | relative viability ([1]; first compound 2.53 µM) | relative viability ([1]; first compound 8 µM) | relative viability ([2]; first compound 0.08 µM) | relative viability ([2]; first compound 0.253 µM) | relative viability ([2]; first compound 0.8 µM) | relative viability ([2]; first compound 2.53 µM) | relative viability ([2]; first compound 8 µM) | relative viability (Veliparib + Dasatinib; first compound 0.02 µM) | relative viability (Veliparib + Dasatinib; first compound 0.06325 µM) | relative viability (Veliparib + Dasatinib; first compound 0.2 µM) | relative viability (Veliparib + Dasatinib; first compound 0.6325 µM) | relative viability (Veliparib + Dasatinib; first compound 2 µM) |
| --- | --- | --- | --- | --- | --- | --- | --- | --- | --- | --- | --- | --- | --- | --- | --- | --- | --- | --- | --- | --- |
| NCI-H2087 | 0.167 | 0.188 | 0.152 | 0.14 | 0.145 | 0.522 | 1 | 1.05 | 1.05 | 0.807 | 0.974 | 1.03 | 1.13 | 1.08 | 0.856 | 0.738 | 0.731 | 0.886 | 0.788 | 0.942 |
| RERF-LC-KJ | 1.26 | 1.25 | 1.2 | 1.21 | 1.29 | 0.428 | 0.881 | 0.924 | 0.95 | 0.869 | 0.934 | 0.852 | 0.903 | 1.04 | 0.926 | 0.574 | 0.865 | 0.845 | 0.767 | 0.755 |
| PC-3 [JPC-3] | 0.65 | 0.711 | 0.753 | 0.662 | 0.66 | 0.423 | 0.486 | 0.493 | 0.49 | 0.478 | 0.822 | 0.831 | 0.83 | 0.859 | 0.74 | 1.04 | 0.93 | 0.967 | 0.985 | 0.975 |
| EKVX | 0.82 | 0.835 | 0.89 | 0.812 | 0.827 | 0.166 | 0.18 | 0.185 | 0.203 | 0.225 | 0.934 | 1 | 0.968 | 0.988 | 0.952 |  | 0.658 | 0.66 | 0.532 | 0.48 |
| NCI-H520 | 0.224 | 0.239 | 0.221 | 0.205 | 0.247 | 0.425 | 0.891 | 0.943 | 0.886 | 0.803 | 0.279 | 1.18 | 1.27 | 1.15 | 1.09 | 0.194 | 0.233 | 0.176 | 0.168 | 0.188 |
| NCI-H1355 |  | 0.543 | 0.664 | 0.658 | 0.62 | 0.247 | 1.1 | 0.959 | 0.978 | 0.934 | 0.781 | 1 | 0.94 | 1.11 | 0.873 |  | 0.676 | 0.682 | 0.611 | 0.524 |
| NCI-H2228 | 0.141 | 0.0988 | 0.145 | 0.123 | 0.154 | 0.864 | 0.853 | 1.11 | 0.916 | 0.789 | 0.955 | 1.19 | 1.04 | 1.1 | 0.411 | 0.51 | 0.509 | 0.508 | 0.357 | 0.467 |
| NCI-H2170 | 0.681 | 0.865 | 0.719 | 0.732 | 0.6 | 0.187 | 0.282 | 0.26 | 0.27 | 0.245 | 0.476 | 0.669 | 0.715 | 0.634 | 0.509 | 0.549 | 0.629 | 0.587 | 0.562 | 0.592 |
| NCI-H1666 | 1.01 | 0.984 | 0.968 | 0.941 | 0.982 | 0.428 | 0.778 | 0.821 | 0.649 | 0.716 | 0.85 | 0.893 | 0.988 | 1.26 | 1.06 | 0.725 | 0.846 | 0.766 | 0.753 | 0.757 |
| NCI-H2347 | 0.484 | 0.54 | 0.649 | 0.547 | 0.427 | 0.517 | 0.896 | 1.03 | 1.01 | 0.904 | 0.579 | 0.883 | 0.843 | 0.968 | 0.762 | 0.327 | 0.266 | 0.275 | 0.336 | 0.315 |
| NCI-H2009 | 1.03 | 0.96 | 1.05 | 1.05 | 1.13 | 0.432 | 0.886 | 1.25 | 0.954 | 0.767 | 1.23 | 1.19 | 1.13 | 1.18 | 1.13 | 0.332 | 0.319 | 0.331 | 0.29 | 0.292 |
| NCI-H460 | 0.0408 | 0.0256 | 0.0384 | 0.0245 | 0.0352 | 0.118 | 1.04 | 0.953 | 0.907 | 0.931 | 1.04 | 1.15 | 1.08 | 1.15 | 1.1 | 0.456 | 0.393 | 0.419 | 0.466 | 0.479 |
| NCI-H2085 |  | 0.438 | 0.426 | 0.273 | 0.447 | 0.336 | 0.817 | 0.798 | 0.81 | 0.708 | 0.891 | 1.04 | 1.19 | 1.01 | 1.08 | 0.239 | 0.213 | 0.262 | 0.252 | 0.246 |
| NCI-H596 | 0.975 | 1.02 | 1.17 | 0.889 | 0.919 | 0.976 | 1.01 | 1.25 | 1.11 | 0.999 | 0.944 | 0.906 | 1.07 | 0.963 | 1.04 | 0.611 | 0.571 | 0.641 | 0.521 | 0.633 |
| HCC-15 | 0.302 | 0.314 | 0.252 | 0.191 | 0.334 | 0.458 | 0.875 | 0.843 | 0.842 | 0.73 | 0.605 | 0.726 | 0.717 | 0.741 | 0.675 |  | 0.524 | 0.629 | 0.603 | 0.582 |
| NCI-H2405 | 0.695 | 0.609 | 0.771 | 0.666 | 0.711 | 0.523 | 1.03 | 1.11 | 1.17 | 0.871 | 0.534 | 0.82 | 0.764 | 0.775 | 0.66 | 0.225 | 0.171 | 0.225 | 0.244 | 0.222 |
